Molecules are shown by their SMILES.

The species entered for the experiment is Sus scrofa. Briefly: Ratio of the concentration leading to a 50% inhibition of the rate of pig brain microtubule disassembly to that of taxol (0.4 uM) was determined. It counts as functional.
Regarding `C/C=C/C(=O)O[C@H]1C[C@@]2(O)[C@@H](OC(=O)c3ccccc3)[C@@H]3[C@]4(OC(C)=O)CO[C@@H]4C[C@H](O)[C@@]3(C)C(=O)[C@H](OC(C)=O)C(=C1C)C2(C)C`, the Ratio turned out to be 100.
As for `CC(=O)O[C@@]12CO[C@@H]1C[C@H](O)[C@@]1(C)C(=O)[C@H](O)C3=C(C)[C@@H](OC(=O)CC(NC(=O)OC(C)(C)C)c4ccccc4)C[C@@](O)([C@@H](OC(=O)c4ccccc4)[C@H]21)C3(C)C` (single isomer, unassigned; 10a), the Ratio is recorded as 2.3.
In the case of `CC(=O)O[C@@]12CO[C@@H]1C[C@H](O)[C@@]1(C)C(=O)[C@H](O)C3=C(C)[C@@H](OC(=O)C(O)C(O)c4ccccc4)C[C@@](O)([C@@H](OC(=O)c4ccccc4)[C@H]21)C3(C)C` (stereo not given in full) it was 3; in that of `CC(=O)O[C@H]1C(=O)[C@@]2(C)[C@H]([C@H](OC(=O)c3ccccc3)[C@]3(O)C[C@H](OC(=O)C(NC(=O)OC(C)(C)C)C(O)c4ccccc4)C(C)=C1C3(C)C)[C@]1(OC(C)=O)CO[C@@H]1C[C@@H]2O` (stereo in doubt; 16c), 10.
Turning to `CC(=O)O[C@@]12CO[C@@H]1C[C@H](O)[C@@]1(C)C(=O)[C@H](O)C3=C(C)[C@@H](OC(=O)/C=C/c4ccccc4)C[C@@](O)([C@@H](OC(=O)c4ccccc4)[C@H]21)C3(C)C`, the Ratio stood at 23.
With `CC(=O)O[C@H]1C(=O)[C@@]2(C)[C@H]([C@H](OC(=O)c3ccccc3)[C@]3(O)C[C@H](OC(=O)[C@@H](NC(=O)c4ccccc4)[C@H](O)c4ccccc4)C(C)=C1C3(C)C)[C@]1(OC(C)=O)CO[C@@H]1C[C@@H]2O`, the Ratio is on record as 110.
In the case of `CC(=O)O[C@@]12CO[C@@H]1C[C@H](O)[C@@]1(C)C(=O)[C@H](O)C3=C(C)[C@@H](OC(=O)C(NS(=O)(=O)c4ccc(C)cc4)C(O)c4ccccc4)C[C@@](O)([C@@H](OC(=O)c4ccccc4)[C@H]21)C3(C)C` (stereo not given in full) it was 15.
Turning to `CC(=O)O[C@@]12CO[C@@H]1C[C@H](O)[C@@]1(C)C(=O)[C@H](O)C3=C(C)[C@@H](OC(=O)C(NC(=O)c4ccccc4)C(O)c4ccccc4)C[C@@](O)([C@@H](OC(=O)c4ccccc4)[C@H]21)C3(C)C` (stereo in doubt; 14c), the Ratio came out at 10.
In the case of `CC(=O)O[C@@]12CO[C@@H]1C[C@H](O)[C@@]1(C)C(=O)[C@H](O)C3=C(C)[C@@H](OC(=O)C(O)C(NC(=O)c4ccccc4)c4ccccc4)C[C@@](O)([C@@H](OC(=O)c4ccccc4)[C@H]21)C3(C)C` (stereo not given in full) it was 1.3.
In the case of `CC(=O)O[C@H]1C(=O)[C@@]2(C)[C@H]([C@H](OC(=O)c3ccccc3)[C@]3(O)C[C@H](OC(=O)C(O)C(N)c4ccccc4)C(C)=C1C3(C)C)[C@]1(OC(C)=O)CO[C@@H]1C[C@@H]2O` (stereo not given in full) it was 44; in that of `CC(=O)O[C@@]12CO[C@@H]1C[C@H](OC(=O)OCC(Cl)(Cl)Cl)[C@@]1(C)C(=O)[C@H](OC(=O)OCC(Cl)(Cl)Cl)C3=C(C)[C@@H](OC(=O)/C=C/c4ccccc4)C[C@@](O)([C@@H](OC(=O)c4ccccc4)[C@H]21)C3(C)C`, 1000; in that of `CC(=O)O[C@@]12CO[C@@H]1C[C@H](O)[C@@]1(C)C(=O)[C@H](O)C3=C(C)[C@@H](OC(=O)C(NC(=O)c4ccccc4)C(O)c4ccccc4)C[C@@](O)([C@@H](OC(=O)c4ccccc4)[C@H]21)C3(C)C` (stereo in doubt; 14d), 170.
In the case of `CC(=O)O[C@@]12CO[C@@H]1C[C@H](O)[C@@]1(C)C(=O)[C@H](O)C3=C(C)[C@@H](OC(=O)[C@H](O)[C@@H](NS(=O)(=O)c4ccc(C)cc4)c4ccccc4)C[C@@](O)([C@@H](OC(=O)c4ccccc4)[C@H]21)C3(C)C` it was 5; in that of `CC(=O)O[C@@]12CO[C@@H]1C[C@H](O)[C@@]1(C)C(=O)[C@H](O)C3=C(C)[C@@H](OC(=O)C(O)Cc4ccccc4)C[C@@](O)([C@@H](OC(=O)c4ccccc4)[C@H]21)C3(C)C` (stereo not given in full), 4.5; in that of `CC(=O)O[C@H]1C(=O)[C@]2(C)[C@@H](OC(=O)CCCC(=O)O)C[C@H]3OC[C@@]3(OC(C)=O)[C@H]2[C@H](OC(=O)c2ccccc2)[C@]2(O)C[C@H](OC(=O)C(O)C(NC(=O)c3ccccc3)c3ccccc3)C(C)=C1C2(C)C` (stereo not given in full), 1.
In the case of `CC(=O)O[C@@]12CO[C@@H]1C[C@H](OC(=O)CCCC(=O)O)[C@@]1(C)C(=O)[C@H](OC(=O)CCCC(=O)O)C3=C(C)[C@@H](OC(=O)C(O)C(NC(=O)OC(C)(C)C)c4ccccc4)C[C@@](O)([C@@H](OC(=O)c4ccccc4)[C@H]21)C3(C)C` (stereo not given in full), the Ratio is given as 2.
For `CC(=O)O[C@@]12CO[C@@H]1C[C@H](O)[C@@]1(C)C(=O)[C@H](O)C3=C(C)[C@@H](OC(=O)C(O)C(NC(=O)OC(C)(C)C)c4ccccc4)C[C@@](O)([C@@H](OC(=O)c4ccccc4)[C@H]21)C3(C)C` (stereo in doubt; 13e), the Ratio stood at 1.8.
With `CC(=O)O[C@@]12CO[C@@H]1C[C@H](O)[C@@]1(C)C(=O)[C@H](O)C3=C(C)[C@@H](OC(=O)C(O)C(N)c4ccccc4)C[C@@](O)([C@@H](OC(=O)c4ccccc4)[C@H]21)C3(C)C` (stereo not given in full), the Ratio was 30.
On to `CC(=O)O[C@@]12CO[C@@H]1C[C@H](O)[C@@]1(C)C(=O)[C@H](O)C3=C(C)[C@@H](OC(=O)C(O)C(NC(=O)OC(C)(C)C)c4ccccc4)C[C@@](O)([C@@H](OC(=O)c4ccccc4)[C@H]21)C3(C)C` (stereo in doubt; 13f), for which the Ratio turned out to be 4.3.
In the case of `CC(=O)O[C@@]12CO[C@@H]1C[C@H](O)[C@@]1(C)C(=O)[C@H](O)C3=C(C)[C@@H](OC(=O)C(O)C(NC(=O)CCCC(=O)O)c4ccccc4)C[C@@](O)([C@@H](OC(=O)c4ccccc4)[C@H]21)C3(C)C` (stereo not given in full) it was 1.
In the case of `CC(=O)O[C@@]12CO[C@@H]1C[C@H](O)[C@@]1(C)C(=O)[C@H](O)C3=C(C)[C@@H](OC(=O)[C@H](NC(=O)OC(C)(C)C)[C@@H](O)c4ccccc4)C[C@@](O)([C@@H](OC(=O)c4ccccc4)[C@H]21)C3(C)C` it was 160.
On to `CC(=O)O[C@@]12CO[C@@H]1C[C@H](O)[C@@]1(C)C(=O)[C@H](O)C3=C(C)[C@@H](OC(=O)[C@@H](O)[C@H](NC(=O)c4ccccc4)c4ccccc4)C[C@@](O)([C@@H](OC(=O)c4ccccc4)[C@H]21)C3(C)C`, for which the Ratio is on record as 4.
Turning to `CC(=O)O[C@H]1C(=O)[C@@]2(C)[C@H]([C@H](OC(=O)c3ccccc3)[C@]3(O)C[C@H](OC(=O)[C@@H](O)[C@H](NC(=O)OC(C)(C)C)c4ccccc4)C(C)=C1C3(C)C)[C@]1(OC(C)=O)CO[C@@H]1C[C@@H]2O`, the Ratio was 30.
For `CC(=O)O[C@@]12CO[C@@H]1C[C@H](O)[C@@]1(C)C(=O)[C@H](O)C3=C(C)[C@@H](OC(=O)CC(NC(=O)OC(C)(C)C)c4ccccc4)C[C@@](O)([C@@H](OC(=O)c4ccccc4)[C@H]21)C3(C)C` (single isomer, unassigned; 10b), the Ratio is 4.1.
As to `CC(=O)O[C@H]1C(=O)[C@@]2(C)[C@H]([C@H](OC(=O)c3ccccc3)[C@]3(O)C[C@H](OC(=O)C(NC(=O)OC(C)(C)C)C(O)c4ccccc4)C(C)=C1C3(C)C)[C@]1(OC(C)=O)CO[C@@H]1C[C@@H]2O` (stereo in doubt; 16d), the Ratio is given as 108.

(Values after ChEMBL document CHEMBL1125650, “Relationships between the structure of taxol analogues and their antimitotic activity” (J Med Chem, 1991).)
